Assay results from PubChem BioAssay AID1259407 (Chemical Carcinogenesis Research Information System (CCRIS), 2018).
Calls of active or inactive are those of the source. The rule behind the calls is not given here.

Test system: CCRIS mutagenicity, Ames/micronucleus/aberration tests
Test: CCRIS mutagenicity studies

C1CCC2CCCCC2C1 (centres undefined)
mutagenic call (End Point: IN VIVO MICRONUCLEUS, Test System: PERIPHERAL BLOOD LYMPHOCYTES, Species: MOUSE, Strain/Sex: B6C3F1/FEMALE, Route: INHALATION): inactive; negative
mutagenic call (End Point: IN VIVO MICRONUCLEUS, Test System: PERIPHERAL BLOOD LYMPHOCYTES, Species: MOUSE, Strain/Sex: B6C3F1/MALE, Route: INHALATION): active; positive
mutagenic call (Test System: AMES SALMONELLA TYPHIMURIUM, Strain/Indicator: TA97, Metabolic Activation: HAMSTER, LIVER, S-9 (10%), AROCLOR 1254, Method: PREINCUBATION): inactive; negative
mutagenic call (Test System: AMES SALMONELLA TYPHIMURIUM, Strain/Indicator: TA97, Metabolic Activation: HAMSTER, LIVER, S-9 (30%), AROCLOR 1254, Method: PREINCUBATION): inactive; negative
mutagenic call (Test System: AMES SALMONELLA TYPHIMURIUM, Strain/Indicator: TA97, Metabolic Activation: NONE, Method: PREINCUBATION): inactive; negative
mutagenic call (Test System: AMES SALMONELLA TYPHIMURIUM, Strain/Indicator: TA97, Metabolic Activation: RAT, LIVER, S-9 (10%), AROCLOR 1254, Method: PREINCUBATION): inactive; negative
mutagenic call (Test System: AMES SALMONELLA TYPHIMURIUM, Strain/Indicator: TA97, Metabolic Activation: RAT, LIVER, S-9 (30%), AROCLOR 1254, Method: PREINCUBATION): inactive; negative
mutagenic call (Test System: AMES SALMONELLA TYPHIMURIUM, Strain/Indicator: TA98, Metabolic Activation: HAMSTER, LIVER, S-9 (10%), AROCLOR 1254, Method: PREINCUBATION): inactive; negative
mutagenic call (Test System: AMES SALMONELLA TYPHIMURIUM, Strain/Indicator: TA98, Metabolic Activation: HAMSTER, LIVER, S-9 (30%), AROCLOR 1254, Method: PREINCUBATION): inactive; negative
mutagenic call (Test System: AMES SALMONELLA TYPHIMURIUM, Strain/Indicator: TA98, Metabolic Activation: HAMSTER, LIVER, S-9, AROCLOR 1254, Method: STANDARD PLATE): inactive; negative
mutagenic call (Test System: AMES SALMONELLA TYPHIMURIUM, Strain/Indicator: TA98, Metabolic Activation: NONE, Method: PREINCUBATION): inactive; negative
mutagenic call (Test System: AMES SALMONELLA TYPHIMURIUM, Strain/Indicator: TA98, Metabolic Activation: NONE, Method: STANDARD PLATE): inactive; negative
mutagenic call (Test System: AMES SALMONELLA TYPHIMURIUM, Strain/Indicator: TA98, Metabolic Activation: RAT, LIVER, S-9 (10%), AROCLOR 1254, Method: PREINCUBATION): inactive; negative
mutagenic call (Test System: AMES SALMONELLA TYPHIMURIUM, Strain/Indicator: TA98, Metabolic Activation: RAT, LIVER, S-9 (30%), AROCLOR 1254, Method: PREINCUBATION): inactive; negative
mutagenic call (Test System: AMES SALMONELLA TYPHIMURIUM, Strain/Indicator: TA98, Metabolic Activation: RAT, LIVER, S-9, AROCLOR 1254, Method: STANDARD PLATE): inactive; negative
mutagenic call (Test System: AMES SALMONELLA TYPHIMURIUM, Strain/Indicator: TA100, Metabolic Activation: HAMSTER, LIVER, S-9 (10%), AROCLOR 1254, Method: PREINCUBATION): inactive; negative
mutagenic call (Test System: AMES SALMONELLA TYPHIMURIUM, Strain/Indicator: TA100, Metabolic Activation: HAMSTER, LIVER, S-9 (30%), AROCLOR 1254, Method: PREINCUBATION): inactive; negative
mutagenic call (Test System: AMES SALMONELLA TYPHIMURIUM, Strain/Indicator: TA100, Metabolic Activation: HAMSTER, LIVER, S-9, AROCLOR 1254, Method: STANDARD PLATE): inactive; negative
mutagenic call (Test System: AMES SALMONELLA TYPHIMURIUM, Strain/Indicator: TA100, Metabolic Activation: NONE, Method: PREINCUBATION): inactive; negative; precipitation occurred at 333 ug/plate
mutagenic call (Test System: AMES SALMONELLA TYPHIMURIUM, Strain/Indicator: TA100, Metabolic Activation: NONE, Method: STANDARD PLATE): inactive; negative
mutagenic call (Test System: AMES SALMONELLA TYPHIMURIUM, Strain/Indicator: TA100, Metabolic Activation: RAT, LIVER, S-9 (10%), AROCLOR 1254, Method: PREINCUBATION): inactive; negative
mutagenic call (Test System: AMES SALMONELLA TYPHIMURIUM, Strain/Indicator: TA100, Metabolic Activation: RAT, LIVER, S-9 (30%), AROCLOR 1254, Method: PREINCUBATION): inactive; negative
mutagenic call (Test System: AMES SALMONELLA TYPHIMURIUM, Strain/Indicator: TA100, Metabolic Activation: RAT, LIVER, S-9, AROCLOR 1254, Method: STANDARD PLATE): inactive; negative
mutagenic call (Test System: AMES SALMONELLA TYPHIMURIUM, Strain/Indicator: TA1535, Metabolic Activation: HAMSTER, LIVER, S-9 (10%), AROCLOR 1254, Method: PREINCUBATION): inactive; negative
mutagenic call (Test System: AMES SALMONELLA TYPHIMURIUM, Strain/Indicator: TA1535, Metabolic Activation: HAMSTER, LIVER, S-9 (30%), AROCLOR 1254, Method: PREINCUBATION): inactive; negative
mutagenic call (Test System: AMES SALMONELLA TYPHIMURIUM, Strain/Indicator: TA1535, Metabolic Activation: HAMSTER, LIVER, S-9, AROCLOR 1254, Method: STANDARD PLATE): inactive; negative
mutagenic call (Test System: AMES SALMONELLA TYPHIMURIUM, Strain/Indicator: TA1535, Metabolic Activation: NONE, Method: PREINCUBATION): inactive; negative
mutagenic call (Test System: AMES SALMONELLA TYPHIMURIUM, Strain/Indicator: TA1535, Metabolic Activation: NONE, Method: STANDARD PLATE): inactive; negative
mutagenic call (Test System: AMES SALMONELLA TYPHIMURIUM, Strain/Indicator: TA1535, Metabolic Activation: RAT, LIVER, S-9 (10%), AROCLOR 1254, Method: PREINCUBATION): inactive; negative
mutagenic call (Test System: AMES SALMONELLA TYPHIMURIUM, Strain/Indicator: TA1535, Metabolic Activation: RAT, LIVER, S-9 (30%), AROCLOR 1254, Method: PREINCUBATION): inactive; negative
mutagenic call (Test System: AMES SALMONELLA TYPHIMURIUM, Strain/Indicator: TA1535, Metabolic Activation: RAT, LIVER, S-9, AROCLOR 1254, Method: STANDARD PLATE): inactive; negative
mutagenic call (Test System: AMES SALMONELLA TYPHIMURIUM, Strain/Indicator: TA1537, Metabolic Activation: HAMSTER, LIVER, S-9, AROCLOR 1254, Method: STANDARD PLATE): inactive; negative
mutagenic call (Test System: AMES SALMONELLA TYPHIMURIUM, Strain/Indicator: TA1537, Metabolic Activation: NONE, Method: STANDARD PLATE): inactive; negative
mutagenic call (Test System: AMES SALMONELLA TYPHIMURIUM, Strain/Indicator: TA1537, Metabolic Activation: RAT, LIVER, S-9, AROCLOR 1254, Method: STANDARD PLATE): inactive; negative
mutagenic call (Test System: AMES SALMONELLA TYPHIMURIUM, Strain/Indicator: TA1538, Metabolic Activation: HAMSTER, LIVER, S-9, AROCLOR 1254, Method: STANDARD PLATE): inactive; negative
mutagenic call (Test System: AMES SALMONELLA TYPHIMURIUM, Strain/Indicator: TA1538, Metabolic Activation: NONE, Method: STANDARD PLATE): inactive; negative
mutagenic call (Test System: AMES SALMONELLA TYPHIMURIUM, Strain/Indicator: TA1538, Metabolic Activation: RAT, LIVER, S-9, AROCLOR 1254, Method: STANDARD PLATE): inactive; negative
mutagenic call (Test System: MOUSE LYMPHOMA, Strain/Indicator: L5178Y (TK+/TK-), Metabolic Activation: NONE, Method: SUSPENSION/PLATE): inactive; negative. reevaluation of results: negative
mutagenic call (Test System: MOUSE LYMPHOMA, Strain/Indicator: L5178Y (TK+/TK-), Metabolic Activation: RAT, LIVER, S-9, AROCLOR 1254, Method: SUSPENSION/PLATE): inactive; negative. reevaluation of results: negative
